The values that follow come from patent US9359358B2, “Cyclohexyl azetidine derivatives as JAK inhibitors” (Incyte Holdings Corporation, priority 2011, dated 2016).

Structures can show the parent of a compound that is named as a salt.

For test [1], the target named is T1, human JAK2 (Homo sapiens, UniProt O60674).
T1 construct: JAK2 (a.a. 828-1132); His tag (N); made in house; host or cells: insect cells (baculovirus)
As to the kind of experiment: In Vitro JAK Kinase Assay (HTRF, phosphorylation of a biotinylated peptide), JAK2. It is filed as biochemical. Conditions: Table 4; assay of Example A. The method in brief: (§1)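 HTRF detection (SA-APC plus Eu-labeled anti-phosphotyrosine Py20, 40 min after EDTA stop) quantified biotinylated-peptide phosphorylation. Kinase reactions with human JAK1 or JAK2 catalytic domains lasted 1 h at room temperature.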
In general terms: TR-FRET usually uses a lanthanide donor and a delayed reading to cut background.

The target of test [2] is T2, human JAK1 (Homo sapiens, UniProt P23458).
T2 construct: human JAK1 (a.a. 837-1142); His tag (N); made in house; host or cells: insect cells (baculovirus)
T2 sequence (P23458 849-1154): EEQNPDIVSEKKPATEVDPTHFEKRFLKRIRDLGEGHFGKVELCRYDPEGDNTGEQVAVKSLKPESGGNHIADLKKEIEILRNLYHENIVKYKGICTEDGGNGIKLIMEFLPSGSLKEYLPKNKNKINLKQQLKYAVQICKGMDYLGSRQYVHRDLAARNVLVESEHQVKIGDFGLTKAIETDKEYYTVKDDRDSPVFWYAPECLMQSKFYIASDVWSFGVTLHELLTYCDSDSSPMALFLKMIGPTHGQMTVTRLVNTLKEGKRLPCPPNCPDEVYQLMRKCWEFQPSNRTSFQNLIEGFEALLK
Kind of test: In Vitro JAK Kinase Assay (HTRF, phosphorylation of a biotinylated peptide), JAK1. It is filed as biochemical. Conditions: Table 4; catalytic domain a.a. 837-1142, assay of Example A. The method, boiled down:
as §1

T1 sequence (O60674 828-1132): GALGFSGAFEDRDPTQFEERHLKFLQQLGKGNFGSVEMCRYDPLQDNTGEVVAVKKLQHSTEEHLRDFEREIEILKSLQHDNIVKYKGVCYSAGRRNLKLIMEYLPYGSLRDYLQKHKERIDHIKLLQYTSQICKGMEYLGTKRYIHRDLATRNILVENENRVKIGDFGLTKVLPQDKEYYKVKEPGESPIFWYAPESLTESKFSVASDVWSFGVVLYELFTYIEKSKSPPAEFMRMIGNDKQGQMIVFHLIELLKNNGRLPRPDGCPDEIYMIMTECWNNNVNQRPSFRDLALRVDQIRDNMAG

On to `N#CCC1(n2cc(-c3ncnc4[nH]ccc34)cn2)CN([C@H]2CC[C@@H](Oc3cc(CN4CCC4)nc(C(F)(F)F)n3)CC2)C1` [Example 23, {1-(cis-4-{[6-(azetidin-1-ylmethyl)-2-(trifluoromethyl)pyrimidin-4-yl]oxy}cyclohexyl)-3-[4-(7H-pyrrolo[2,3-d]pyrimidin-4-yl)-1H-pyrazol-1-yl]azetidin-3-yl}acetonitrile tris(trifluoroacetate)], for which the “JAK2/JAK1 IC50 ratio” value in test [1] is “≧10”. Further, the half-maximal inhibitory concentration (IC50) in test [2] is less than 10 nM.
For `N#CCC1(n2cc(-c3ncnc4[nH]ccc34)cn2)CN([C@H]2CC[C@@H](Oc3cc(CN4CC(O)C4)nc(C(F)(F)F)n3)CC2)C1` [Example 24, {1-(cis-4-{[6-[(3-hydroxyazetidin-1-yl)methyl]-2-(trifluoromethyl)pyrimidin-4-yl]oxy}cyclohexyl)-3-[4-(7H-pyrrolo[2,3-d]pyrimidin-4-yl)-1H-pyrazol-1-yl]azetidin-3-yl}acetonitrile tris(trifluoroacetate) (salt)], the “JAK2/JAK1 IC50 ratio” value in test [1] is listed as “≧10”. This compound showed an IC50 in test [2] of less than 10 nM.
`N#CCC1(n2cc(-c3ncnc4[nH]ccc34)cn2)CN([C@H]2CC[C@@H](Oc3cc(CN4CCCC4)nc(C(F)(F)F)n3)CC2)C1` [Example 25, {1-(cis-4-{[6-(pyrrolidin-1-ylmethyl)-2-(trifluoromethyl)pyrimidin-4-yl]oxy}cyclohexyl)-3-[4-(7H-pyrrolo[2,3-d]pyrimidin-4-yl)-1H-pyrazol-1-yl]azetidin-3-yl}acetonitrile tris(trifluoroacetate)]: in test [1], the “JAK2/JAK1 IC50 ratio” value is listed as “≧10”. The compound also gave an IC50 in test [2] of less than 10 nM.
Consider `N#CCC1(n2cc(-c3ncnc4[nH]ccc34)cn2)CN([C@H]2CC[C@@H](Oc3cc(CN4CC[C@H](O)C4)nc(C(F)(F)F)n3)CC2)C1` [Example 26, {1-(cis-4-{[6-{[(3S)-3-hydroxypyrrolidin-1-yl]methyl}-2-(trifluoromethyl)pyrimidin-4-yl]oxy}cyclohexyl)-3-[4-(7H-pyrrolo[2,3-d]pyrimidin-4-yl)-1H-pyrazol-1-yl]azetidin-3-yl}acetonitrile tris(trifluoroacetate) (salt)], for which the “JAK2/JAK1 IC50 ratio” value in test [1] is “≧10”. In test [2], the concentration for half-maximal inhibition (IC50) is less than 10 nM.
Taken in the same sequence, the figures for `N#CCC1(n2cc(-c3ncnc4[nH]ccc34)cn2)CN([C@H]2CC[C@@H](Oc3cc(CNC[C@@H]4CCCO4)nc(C(F)(F)F)n3)CC2)C1` [Example 27, [3-[4-(7H-pyrrolo[2,3-d]pyrimidin-4-yl)-1H-pyrazol-1-yl]-1-(cis-4-{[6-({[(2S)-tetrahydrofuran-2-ylmethyl]amino}methyl)-2-(trifluoromethyl)pyrimidin-4-yl]oxy}cyclohexyl)azetidin-3-yl]acetonitrile tris(trifluoroacetate)] were “≧10” and less than 10 nM.
With `N#CCC1(n2cc(-c3ncnc4[nH]ccc34)cn2)CN([C@H]2CC[C@@H](Oc3cc(CN4CCC[C@H]4CO)nc(C(F)(F)F)n3)CC2)C1` [Example 28, {1-(cis-4-{[6-{[(2R)-2-(hydroxymethyl)pyrrolidin-1-yl]methyl}-2-(trifluoromethyl)pyrimidin-4-yl]oxy}cyclohexyl)-3-[4-(7H-pyrrolo[2,3-d]pyrimidin-4-yl)-1H-pyrazol-1-yl]azetidin-3-yl}acetonitrile tris(trifluoroacetate) (salt)], the “JAK2/JAK1 IC50 ratio” value in test [1] is “≧10”. Moreover, the IC50 in test [2] is less than 10 nM.
For `N#CCC1(n2cc(-c3ncnc4[nH]ccc34)cn2)CN([C@H]2CC[C@@H](Oc3cc(CN4CCC[C@@H]4CO)nc(C(F)(F)F)n3)CC2)C1` [Example 29, {1-(cis-4-{[6-{[(2S)-2-(hydroxymethyl)pyrrolidin-1-yl]methyl}-2-(trifluoromethyl)pyrimidin-4-yl]oxy}cyclohexyl)-3-[4-(7H-pyrrolo[2,3-d]pyrimidin-4-yl)-1H-pyrazol-1-yl]azetidin-3-yl}acetonitrile tris(trifluoroacetate) (salt)], in test [1], the “JAK2/JAK1 IC50 ratio” value is recorded as “≧10”. In test [2], this compound showed a 50% inhibitory concentration (IC50) of less than 10 nM.
In the same order, the values of `N#CCC1(n2cc(-c3ncnc4[nH]ccc34)cn2)CN([C@H]2CC[C@@H](Oc3cc(CN4CC[C@H](F)C4)nc(C(F)(F)F)n3)CC2)C1` [Example 31, {1-(cis-4-{[6-{[(3S)-3-fluoropyrrolidin-1-yl]methyl}-2-(trifluoromethyl)pyrimidin-4-yl]oxy}cyclohexyl)-3-[4-(7H-pyrrolo[2,3-d]pyrimidin-4-yl)-1H-pyrazol-1-yl]azetidin-3-yl}acetonitrile tris(trifluoroacetate)] are “≧10” and less than 10 nM.
As for `CCCNCc1cc(O[C@H]2CC[C@@H](N3CC(CC#N)(n4cc(-c5ncnc6[nH]ccc56)cn4)C3)CC2)nc(C(F)(F)F)n1.O=C(O)C(F)(F)F.O=C(O)C(F)(F)F.O=C(O)C(F)(F)F` [Example 32, {1-(cis-4-{[6-[(propylamino)methyl]-2-(trifluoromethyl)pyrimidin-4-yl]oxy}cyclohexyl)-3-[4-(7H-pyrrolo[2,3-d]pyrimidin-4-yl)-1H-pyrazol-1-yl]azetidin-3-yl}acetonitrile tris(trifluoroacetate)], the “JAK2/JAK1 IC50 ratio” value in test [1] is “≧10”. Further, the IC50 in test [2] was less than 10 nM.
In the same order, the values of `N#CCC1(n2cc(-c3ncnc4[nH]ccc34)cn2)CN([C@H]2CC[C@@H](Oc3cc(CNCC(O)CO)nc(C(F)(F)F)n3)CC2)C1` (stereo partly drawn) [Example 33, {1-(cis-4-{[6-{[(2,3-dihydroxypropyl)amino]methyl}-2-(trifluoromethyl)pyrimidin-4-yl]oxy}cyclohexyl)-3-[4-(7H-pyrrolo[2,3-d]pyrimidin-4-yl)-1H-pyrazol-1-yl]azetidin-3-yl}acetonitrile tris(trifluoroacetate) (salt)] are “≧10” and less than 10 nM.
Regarding `CCCCNCc1cc(O[C@H]2CC[C@@H](N3CC(CC#N)(n4cc(-c5ncnc6[nH]ccc56)cn4)C3)CC2)nc(C(F)(F)F)n1.O=C(O)C(F)(F)F.O=C(O)C(F)(F)F.O=C(O)C(F)(F)F` [Example 34, {1-(cis-4-{[6-[(butylamino)methyl]-2-(trifluoromethyl)pyrimidin-4-yl]oxy}cyclohexyl)-3-[4-(7H-pyrrolo[2,3-d]pyrimidin-4-yl)-1H-pyrazol-1-yl]azetidin-3-yl}acetonitrile tris(trifluoroacetate)], in test [1], the “JAK2/JAK1 IC50 ratio” value is “≧10”. Besides, the IC50 in test [2] is less than 10 nM.
On to `CCCCN(C)Cc1cc(O[C@H]2CC[C@@H](N3CC(CC#N)(n4cc(-c5ncnc6[nH]ccc56)cn4)C3)CC2)nc(C(F)(F)F)n1.O=C(O)C(F)(F)F.O=C(O)C(F)(F)F.O=C(O)C(F)(F)F` [Example 36, {1-(cis-4-{[6-{[butyl(methyl)amino]methyl}-2-(trifluoromethyl)pyrimidin-4-yl]oxy}cyclohexyl)-3-[4-(7H-pyrrolo[2,3-d]pyrimidin-4-yl)-1H-pyrazol-1-yl]azetidin-3-yl}acetonitrile tris(trifluoroacetate)], for which the “JAK2/JAK1 IC50 ratio” value in test [1] is recorded as “≧10”. This compound yielded an IC50 in test [2] of less than 10 nM.
In the case of `N#CCC1(n2cc(-c3ncnc4[nH]ccc34)cn2)CN([C@H]2CC[C@@H](Oc3cc(CN4CC(F)C4)nc(C(F)(F)F)n3)CC2)C1` [Example 37, {1-(cis-4-{[6-[(3-fluoroazetidin-1-yl)methyl]-2-(trifluoromethyl)pyrimidin-4-yl]oxy}cyclohexyl)-3-[4-(7H-pyrrolo[2,3-d]pyrimidin-4-yl)-1H-pyrazol-1-yl]azetidin-3-yl}acetonitrile tris(trifluoroacetate)], in test [1], the “JAK2/JAK1 IC50 ratio” value is reported as “≧10”. The same compound had an IC50 in test [2] of less than 10 nM.
In the same order, the values of `N#CCC1(n2cc(-c3ncnc4[nH]ccc34)cn2)CN([C@H]2CC[C@@H](Oc3cc(CNCC4(CO)CC4)nc(C(F)(F)F)n3)CC2)C1` [Example 38, {1-(cis-4-{[6-[({[1-(hydroxymethyl)cyclopropyl]methyl}-amino)methyl]-2-(trifluoromethyl)pyrimidin-4-yl]oxy}cyclohexyl)-3-[4-(7H-pyrrolo[2,3-d]pyrimidin-4-yl)-1H-pyrazol-1-yl]azetidin-3-yl}acetonitrile tris(trifluoroacetate) (salt)] are “≧10” and less than 10 nM.
Taken in the same sequence, the figures for `COCCCNCc1cc(O[C@H]2CC[C@@H](N3CC(CC#N)(n4cc(-c5ncnc6[nH]ccc56)cn4)C3)CC2)nc(C(F)(F)F)n1` [Example 40, {1-(cis-4-{[6-{[(3-methoxypropyl)amino]methyl}-2-(trifluoromethyl)pyrimidin-4-yl]oxy}cyclohexyl)-3-[4-(7H-pyrrolo[2,3-d]pyrimidin-4-yl)-1H-pyrazol-1-yl]azetidin-3-yl}acetonitrile tris(trifluoroacetate)] were “≧10” and less than 10 nM.
Taken in the same sequence, the figures for `COCC(C)NCc1cc(O[C@H]2CC[C@@H](N3CC(CC#N)(n4cc(-c5ncnc6[nH]ccc56)cn4)C3)CC2)nc(C(F)(F)F)n1` (stereo partly drawn) [Example 41, {1-(cis-4-{[6-{[(2-methoxy-1-methylethyl)amino]methyl}-2-(trifluoromethyl)pyrimidin-4-yl]oxy}cyclohexyl)-3-[4-(7H-pyrrolo[2,3-d]pyrimidin-4-yl)-1H-pyrazol-1-yl]azetidin-3-yl}acetonitrile tris(trifluoroacetate)] were “≧10” and less than 10 nM.
Take `COCCN(C)Cc1cc(O[C@H]2CC[C@@H](N3CC(CC#N)(n4cc(-c5ncnc6[nH]ccc56)cn4)C3)CC2)nc(C(F)(F)F)n1.O=C(O)C(F)(F)F.O=C(O)C(F)(F)F.O=C(O)C(F)(F)F` [Example 42, {1-(cis-4-{[6-{[(2-methoxyethyl)(methyl)amino]methyl}-2-(trifluoromethyl)pyrimidin-4-yl]oxy}cyclohexyl)-3-[4-(7H-pyrrolo[2,3-d]pyrimidin-4-yl)-1H-pyrazol-1-yl]azetidin-3-yl}acetonitrile tris(trifluoroacetate)]: in test [1], the “JAK2/JAK1 IC50 ratio” value is “≧10”. The same compound displayed an IC50 in test [2] of less than 10 nM.

The term IC50 denotes the midpoint of a concentration-inhibition curve.
